Assay type in all cases: cell-based
One test has as its system E. coli JT4. Kind of test: standard microtitre (MIC) test, E. coli JT4. To be noted: Escherichia coli. The source says: (§1) In a standard microtitre (MIC) test, the compound of Example 14 gave the following data: […]
In a further test the test system is E. coli NCTC 10418. Kind of test: standard microtitre (MIC) test, E. coli NCTC 10418. To be noted: Escherichia coli, NCTC10418.
Excerpt: as §1

The subject of the next test is S. marcescens US32. Kind of test: standard microtitre (MIC) test, S. marcescens US32. To be noted: Serratia marcescens.
Excerpt: as §1

For a further test, the system named is K. aerogenes A. Kind of test: standard microtitre (MIC) test, K. aerogenes A. To be noted: Klebsiella aerogenes.
Excerpt: as §1

A further test relates to E. cloacae N1. Kind of test: standard microtitre (MIC) test, E. cloacae N1. To be noted: Enterobacter cloacae.
Excerpt: as §1

Another test has as its system P. morganii. Kind of test: standard microtitre (MIC) test, P. morganii. To be noted: Morganella morganii.
Excerpt: as §1

In a further test the test system is S. aureus Russell. Kind of test: standard microtitre (MIC) test, S. aureus Russell. The settings on record: Staphylococcus aureus.
Excerpt: as §1

Among the data in US4678782A, “3S-formamido azetidinone antibacterial agents, their preparation and use” (Beecham Group p.l.c., priority 1982, dated 1987) are MIC values, retold here.

By MIC is commonly meant the lowest concentration found to suppress growth. Low values mean inhibition by little substance, high ones a need for much substance.

For the compound `CCN1CCN(C(=O)N[C@@H](C(=O)NC2(NC=O)CN(S(=O)(=O)O)C2=O)c2ccccc2)C(=O)C1=O` (stereo partly drawn) [Example 14, (3RS)-Potassium-3-[D-2-(4-Ethyl-2,3-dioxopiperazin-1-yl-carboxamido)-2-phenylacetamido]-3-formamido-2-oxo-azetidine-1-sulphonate], the MIC with E. coli JT4 worked out at 25 µg/mL; with E. coli NCTC 10418, 12.5 µg/mL; against S. marcescens US32 it was 12.5 µg/mL; against K. aerogenes A, 3.2 µg/mL; against E. cloacae N1 it was 12.5 µg/mL; against P. morganii it was 6.4 µg/mL. The compound further yielded a minimum inhibitory concentration (MIC) with S. aureus Russell of 3.2 µg/mL.
